Laboratory results: patent publication US20020193850A1, “Use of photodynamic therapy to treat prostatic tissue” (priority 1993, published 2002)
Read-outs that look alike come from different tables or passages of the source. Marks after values point to notes of the source that are not given here.

Legend:
[1] = 1.0 mg/kg, 24 hours after injection
Description: (§1) Animals: Adult mongrel dogs were used in all experiments. Dogs were housed 1/cage and given water and canine chow (Purina Chow, Ralston Purina Corp.) ad libitum.
(§2) Photosensitive composition: The photosensitizer, tin ethyl etiopurpurin was used. The photosensitizer was administered in anesthetized (xylazine/ketamine) dogs as an emulsion via antecubital vein 24 hours prior to light treatment.
Photosensitizer extraction: The animals were injected with 1.0 mg/kg of the photosensitizer. Twenty-four hours later, prostate and other tissues were removed from euthanized animals. Tissue samples were removed from the periurethral prostate and the more peripheral regions. Additionally, the mucosa of the urethra was dissected and its photosensitizer content determined. Bladder mucosa and muscularis were also removed. Tissue was weighed and homogenized with a biohomogenizer (Biospec Products, Inc., Bartleville, Okla.) in 3% acetic acid. After homogenization, a 3:1 ethyl acetate:glacial acetic acid mixture was added and mixed vigorously. The sample was then frozen at −20° C. for at least two hours after which it was thawed and saturated sodium acetate added. The ethyl acetate layer, containing the photosensitizer, was removed and its concentration determined using absorbance spectrophotometry (Response II spectrophotomer, Gilford, Oberlin, Ohio).

[2] = tested on: prostatic tissue; assay: Transurethral photodynamic therapy of the prostate
Description: as §1, §2
Light source and delivery: An LTI 660 dye laser (PDT Systems, Santa Barbara, Calif.) pumped by a KTP/YAG laser (Laserscope, San Jose, Calif.), was used as a light source. Laser light was delivered to the prostate via a 400 micron optical fiber fitted with a 2.0 cm flexible cylindrical diffuser tip (PDT Systems, Inc., Santa Barbara, Calif.).
Tissue Preparation: On removal, the prostates were photographed and then fixed in a 10% buffered formalin solution. After fixation, tissue was sectioned at 5u intervals and stained with H & E. Sections of the urinary bladder were removed and prepared in a similar manner.
Prostate treatment: The animals were injected with 1.0 mg/kg of the photosensitizer. Twenty-four hours after photosensitizer administration the animals were anesthetized with intravenous sodium barbiturate. The animals were intubated and maintained on a respirator during light treatment. They were treated in the dorsolithotomy position. The 2 cm. diffusing tip of the laser fiber was localized in the prostatic urethra under transrectal ultrasound guidance. A Bruel and Kreuger 7.0 megahertz ultrasound scanner with a transrectal probe was used. The laser fiber was placed within a transparent 10F Stamey catheter (TFX Medical, Duluth, Ga.) which was used as a laser fiber carrier. The tip of the catheter was positioned immediately outside the bladder neck. Once positioned, the prostate was treated with 300 (260 mW/cm^2) joules of laser light. The animals were then recovered and returned to their cages, Indwelling catheters were not used after treatment.

[3] = tested on: R3327AT prostate tumor; assay: R3327AT prostate tumor model, photodynamic therapy, tumor growth delay (Example 2); type: in vivo, male Copenhagen rats; conditions: drug dose 1.5 mg/kg
Description: The R3327AT prostate tumor model was used in male Copenhagen rats which were injected with 1.5 mg/kg body wt. of SnET2 (tin ethyl etiopurpurin Emulsion, (0.94 mg/ml) PDT Pharmaceuticals). Each rat had one flank tumor (R3327AT). After two weeks, the tumors ranged from 1.0 to 1.6 cm in length. Twenty four hours after TEP injection, the tumor area received photodynamic therapy with a light source of a KTP pumped 660 dye laser (PDT Systems). The KTP/660 dye laser was tuned to 660 nm; power density: 200 mw/cm^2; light dose: 0, 200, 300 and 400 Joules. Tumor temperatures were monitored using a 23 gge. hypodermic probe (YSI) placed percutaneously beneath the treated tumor. If needed, the tumors were cooled by a jet of cool air. Tumors were measured and recorded three times per week.
The linear regression of tumor growth (represented as tumor volume) for each rat was plotted. The number of days it took the treated tumors to reach their initial tumor volume at the time of treatment was determined by the intercept with a horizontal line drawn at the mean initial tumor volume for all groups. The mean number of days for each light/drug dose group to reach its initial tumor size is recorded in Table 3 below.

[4] = tested on: R3327AT prostate tumor; assay: R3327AT prostate tumor model, photodynamic therapy with 659 YAG or 660 Dye laser (Example 3); type: in vivo, male Copenhagen rats; conditions: 1.5 mg/kg
Description: The R3327AT prostate tumor model was used in male Copenhagen rats which were injected with 1.5 mg/kg body wt. of SnET2 (Tin Ethyl Etiopurpurin Emulsion, PDT Pharmaceuticals). Each rat had one flank tumor (R3327AT). After two weeks, the tumors ranged from 1.0 to 1.6 cm in length. Twenty four hours (+/−2 hrs.) after SnET2 injection the tumor area received photodynamic therapy using either a 659 YAG or 660 Dye laser fiber optically coupled to a 3-way fiber splitter.
Tumor temperatures were monitored using a 23 gge. hypodermic probe (YSI) placed percutaneously beneath the treated tumor. If needed, the tumors were cooled by a jet of cool air. Tumor diameters were measured and recorded three times per week.
Tumor growth was monitored by calculating volumes from the recorded measurements of tumor width, height and length. The rate of growth is presented as the number of days required for an individual tumor to reach 2, 5 or 10 times initial volume. This method of analysis of tumor growth accounts for variations due to differing initial tumor volume (Gibson and Hilf, Cancer Research, 1990). […] Only at the 200 Joule fluence level was there any significant difference between the YAG and Dye lasers in producing tumor growth delay.

[5] = Mean +/- SD, listed as Photosensitizer, 1 mg/kg

## CCOC(=O)C1=Cc2c3nc(cc4nc(cc5[n-]c(cc6[n-]c2c(C)c6CC)c(C)c5CC)C(C)=C4CC)[C@@H](C)[C@]13CC.[Cl-].[Cl-].[Sn] (racemic) [SnET2, tin ethyl etiopurpurin]
[1]
  Tissue levels of photosensitizer compared with plasma levels: significantly greater than plasma levels
[1]; Dog 1
  Photosensitizer concentration, Bladder: 0.2 µg/g
  Photosensitizer concentration, Prostate: 2.1 * ug/g
  Photosensitizer concentration, Urethra: 0.5 µg/g
[1]; Dog 2
  Photosensitizer concentration, Bladder: 0.2 µg/g
  Photosensitizer concentration, Kidney: 2.5 µg/g
  Photosensitizer concentration, Liver: 6.7 µg/g
  Photosensitizer concentration, Muscle: 0.3 µg/g
  Photosensitizer concentration, Plasma (24-hr): 0.1 * * ug/ml
  Photosensitizer concentration, Prostate: 0.8 µg/g
  Photosensitizer concentration, Spleen: 0.8 µg/g
  Photosensitizer concentration, Urethra: 0.3 µg/g
[1]; Dog 3
  Photosensitizer concentration, Bladder: 0.2 µg/g
  Photosensitizer concentration, Kidney: 2.9 µg/g
  Photosensitizer concentration, Liver: 6.1 µg/g
  Photosensitizer concentration, Muscle: 0.2 µg/g
  Photosensitizer concentration, Plasma (24-hr): 0.1 µg/mL
  Photosensitizer concentration, Prostate: 0.9 µg/g
  Photosensitizer concentration, Spleen: 0.8 µg/g
  Photosensitizer concentration, Urethra: 0.2 µg/g
[1]; Mean +/- SD
  Photosensitizer concentration, Kidney: 2.7 ± 0.2 µg/g
  Photosensitizer concentration, Liver: 6.7 ± 0.2 µg/g
  Photosensitizer concentration, Muscle: 0.3 ± 0.1 µg/g
  Photosensitizer concentration, Plasma (24-hr): 0.1 ± 0 µg/mL
  Photosensitizer concentration, Spleen: 0.8 ± 0 µg/g
[1]; [5]
  Photosensitizer concentration, Bladder: 0.2 ± 0 µg/g
  Photosensitizer concentration, Prostate: 1.3 ± 0.6 µg/g
  Photosensitizer concentration, Urethra: 0.3 ± 0.1 µg/g
[2]; 1.0 mg/kg, light 24 hours later, 300 joules (260 mW/cm^2), transurethral
  Prostate effects of photosensitizer and light: showed evidence of a photodynamic effect
[2]; 3 weeks following treatment, 1.0 mg/kg, 300 joules
  Urethral mucosa: The urethral mucosa had regenerated
[2]; 48 hours following photodynamic therapy, 1.0 mg/kg, 300 joules
  Urethral epithelium: loss of the urethral epithelium
[2]; after photodynamic therapy, no indwelling catheter, 1.0 mg/kg, 300 joules
  Animal recovery: voiding: All animals were able to void spontaneously
[2]; after photodynamic therapy, 1.0 mg/kg, 300 joules
  Animal recovery: hematuria: Two of the animals developed gross hematuria
[2]; after photodynamic therapy, believed due to movement or inaccurate placement of the light guide
  Changes in the bladder: In two of the animals there were extensive changes in the bladder
[2]; prostate removed 3 weeks following treatment, 1.0 mg/kg, 300 joules
  Histology of prostate: glandular atrophy and replacement with fibrous tissue
[2]; prostates removed 48 hours following photodynamic therapy, 1.0 mg/kg, 300 joules
  Histologic examination of prostate around the urethra: extensive hemmorhagic necrosis
[3]; Group II: light dose 0 Joules
  # of Days of Growth Delay: 0 days
[3]; Group III: light dose 200 Joules, 660 nm, 200 mw/cm^2
  # of Days of Growth Delay: 6.2 ± 1.2 days
[3]; Group IV: light dose 300 Joules, 660 nm, 200 mw/cm^2
  # of Days of Growth Delay: 5.8 ± 0.8 days
[3]; Group V: light dose 400 Joules, 660 nm, 200 mw/cm^2
  # of Days of Growth Delay: 11.4 ± 3.7 days
[4]; 200 mw/cm^2, significant difference only at the 200 Joule fluence level
  Difference between 660 Dye and 659 YAG lasers as light source for photodynamic therapy: no consistent significant difference
[4]; 659 YAG and 660 Dye lasers, 200-400 Joules, especially at the 400 Joule level
  Tumor growth delay from initial to 2 times initial volume as compared to controls: effective in delaying tumor growth
